In US8927559B2, “Quinazolinone-type compounds as CRTH2 antagonists” (Merck Sharp & Dohme Corp., priority 2010, dated 2015):
pKi: −log10 of the molar value. Several values for one entry are separate records, joined by “and”; a condition that tells them apart may be missing. Equal entries are not always repeated.

target: T1, CRTH2 receptor (hCRTH2) (Homo sapiens, UniProt Q9Y5Y4); assay: Radioligand binding assay ([3H]PGD2 competition, membranes of HEK-hCRTH2 cell line); settings: 3.0 nM [3H]PGD2, HEK-hCRTH2 membranes, 60 min, room temperature; read-out: Ki
T1 construct: expressed in transfected cells; host or cells: HEK cells (HEK-hCRTH2 cell line), membranes
T1 sequence (Q9Y5Y4 1-395): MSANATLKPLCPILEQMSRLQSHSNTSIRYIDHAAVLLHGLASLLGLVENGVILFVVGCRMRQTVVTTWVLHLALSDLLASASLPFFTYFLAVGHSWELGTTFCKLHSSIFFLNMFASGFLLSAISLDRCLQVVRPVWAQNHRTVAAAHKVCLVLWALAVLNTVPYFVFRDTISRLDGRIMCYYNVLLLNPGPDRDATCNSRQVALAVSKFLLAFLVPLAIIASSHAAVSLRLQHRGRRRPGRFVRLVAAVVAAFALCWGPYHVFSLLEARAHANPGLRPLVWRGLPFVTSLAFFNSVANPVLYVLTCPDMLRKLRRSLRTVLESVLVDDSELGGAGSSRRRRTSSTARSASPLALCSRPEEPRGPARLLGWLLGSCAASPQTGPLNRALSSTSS
In short: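 Membranes (8-20 μg protein) from HEK cells expressing human CRTH2 were incubated with [3H]PGD2 and competitor in 1% DMSO for 60 min at room temperature. Non-specific binding was defined with excess PGD2. Bound radioactivity was separated by filtration and counted by melt-on scintillation.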

| Compound | pKi |
| --- | --- |
| O=C(O)CCCCc1nc2cc(-c3cc(C(O)(c4ccccc4)C(F)(F)F)on3)ccc2c(=O)n1-c1ccc(F)cc1 (centres unmarked) [Example 131] | 7.30 to 8.00 |
| CC1(C(O)c2ccc(C#N)cc2)CC(c2ccc3c(=O)n(-c4ccc(F)cc4)c(CCCCC(=O)O)nc3c2)=NO1 (centres unmarked) [Example 132] | 7.30 to 8.00 |
| C[C@]1([C@H](O)c2cccc(C#N)c2)CC(c2ccc3c(=O)n(-c4ccc(F)cc4)c(CCCCC(=O)O)nc3c2)=NO1 [Example 138] | 7.30 to 8.00 |
| O=C(O)CCCCc1nc2cc(C3=NOC4(CCc5ccccc54)C3)ccc2c(=O)n1-c1ccc(F)cc1 (centres unmarked) [Example 143] | 7.30 to 8.00 |
| O=C(O)CCCCc1nc2cc(C3=NOC4(CCc5c(F)cccc54)C3)ccc2c(=O)n1-c1ccc(F)cc1 (centres unmarked) [Example 144] | 7.30 to 8.00 |
| CO[C@@H](c1ccccc1)c1cc(-c2ccc3c(=O)n(-c4ccc(F)cc4)c(C(C)CCCC(=O)O)nc3c2)no1 (some centres unmarked) [Example 146] | 7.30 to 8.00 |
| O=C(O)CCCCc1nc2cc(C3=NO[C@H](c4nc5ccc(Cl)cc5o4)C3)ccc2c(=O)n1-c1ccc(F)cc1 [Example 152] | 7.30 to 8.00 |
| O=C(O)C1CC(Cc2nc3cc(-c4cc(Cc5ccc(F)cc5)on4)ccc3c(=O)n2-c2ccc(F)cc2)C1 (centres unmarked) [Example 156] | 7.30 to 8.00 |
| O=C(O)CCCCc1nc2cc(-c3cc(-c4ccc(Br)cc4)on3)ccc2c(=O)n1-c1ccc(F)cc1 [Example 157] | 7.30 to 8.00 |
| C[C@]1(c2nc3cc(F)ccc3o2)CC(c2ccc3c(=O)n(-c4ccc(F)cc4)c(CCCCC(=O)O)nc3c2)=NO1 [Example 164] | 7.30 to 8.00 |
| CC1(C(=O)Nc2cc(Cl)c(Cl)cc2O)CC(c2ccc3c(=O)n(-c4ccc(F)cc4)c(CCCCC(=O)O)nc3c2)=NO1 (centres unmarked) [Example 165] | 7.30 to 8.00 |
| CC1(c2cn3ccccc3n2)CC(c2ccc3c(=O)n(-c4ccc(F)cc4)c(CCCCC(=O)O)nc3c2)=NO1 (centres unmarked) [Example 171] | ≥ 8.00 |
| C[C@]1(c2nc3ccc(Cl)cc3o2)CC(c2ccc3c(=O)n(-c4ccc(F)cc4)c(CCCCC(=O)O)nc3c2)=NO1 [Example 172] | ≥ 8.00 |
| CC1(c2nc3ccc(F)cc3[nH]2)CC(c2ccc3c(=O)n(-c4ccc(F)cc4)c(CCCCC(=O)O)nc3c2)=NO1 (centres unmarked) [Example 174] | ≥ 8.00 |
| CC1(c2nc3ccc(Cl)cc3[nH]2)CC(c2ccc3c(=O)n(-c4ccc(F)cc4)c(CCCCC(=O)O)nc3c2)=NO1 (centres unmarked) [Example 175] | ≥ 8.00 |
| C[C@]1(c2nc3ccccc3[nH]2)CC(c2ccc3c(=O)n(-c4ccc(F)cc4)c(CCCCC(=O)O)nc3c2)=NO1 [Example 176] | ≥ 8.00 |
| C[C@@]1(c2cn3ccccc3n2)CC(c2ccc3c(=O)n(-c4ccc(F)cc4)c(CCCCC(=O)O)nc3c2)=NO1 [Example 178] | ≥ 8.00 |
| C[C@@]1(c2nc3ccc(F)cc3[nH]2)CC(c2ccc3c(=O)n(-c4ccc(F)cc4)c(CCCCC(=O)O)nc3c2)=NO1 [Example 182] | ≥ 8.00 |

| Compound | pKi |
| --- | --- |
| C[C@]1(c2nc3ccc(F)cc3[nH]2)CC(c2ccc3c(=O)n(-c4ccc(F)cc4)c(CCCCC(=O)O)nc3c2)=NO1 [Example 183] | 7.30 to 8.00 |
| C[C@@]1(c2nc3ccc(F)cc3o2)CC(c2ccc3c(=O)n(-c4ccc(F)cc4)c(CCCCC(=O)O)nc3c2)=NO1 [Example 184] | ≥ 8.00 and 8.24 |
| C[C@]1(c2nc3ccc(F)cc3o2)CC(c2ccc3c(=O)n(-c4ccc(F)cc4)c(CCCCC(=O)O)nc3c2)=NO1 [Example 185] | 7.30 to 8.00 |
| C[C@@]1(c2nc3ccc(Cl)cc3[nH]2)CC(c2ccc3c(=O)n(-c4ccc(F)cc4)c(CCCCC(=O)O)nc3c2)=NO1 [Example 186] | ≥ 8.00 |
| C[C@]1(C(=O)Nc2cc(F)ccc2O)CC(c2ccc3c(=O)n(-c4ccc(F)cc4)c(CCCCC(=O)O)nc3c2)=NO1 [Example 189] | ≥ 8.00 |
| C[C@@]1(C(=O)Nc2cc(F)ccc2O)CC(c2ccc3c(=O)n(-c4ccc(F)cc4)c(CCCCC(=O)O)nc3c2)=NO1 [Example 190] | 7.00 to 7.30 and 7.02 |
| C[C@@]1(C(=O)Nc2ccccc2O)CC(c2ccc3c(=O)n(-c4ccc(F)cc4)c(CCCCC(=O)O)nc3c2)=NO1 [Example 191] | ≥ 8.00 |
| CC(C)(C)OC(=O)C1(C)CC(c2ccc3c(=O)n(-c4ccc(F)cc4)c(CCCCC(=O)O)nc3c2)=NO1 (centres unmarked) [Example 192] | ≥ 8.00 |
| CC1(c2cc3ccccn3n2)CC(c2ccc3c(=O)n(-c4ccc(F)cc4)c(CCCCC(=O)O)nc3c2)=NO1 (centres unmarked) [Example 193] | ≥ 8.00 |
| CC1(c2nc3cc(F)c(F)cc3[nH]2)CC(c2ccc3c(=O)n(-c4ccc(F)cc4)c(CCCCC(=O)O)nc3c2)=NO1 (centres unmarked) [Example 194] | ≥ 8.00 |
| Cc1cccc2nc(C3(C)CC(c4ccc5c(=O)n(-c6ccc(F)cc6)c(CCCCC(=O)O)nc5c4)=NO3)[nH]c12 (centres unmarked) [Example 195] | ≥ 8.00 |
| C[C@@]1(c2nc3cc(C(F)(F)F)ccc3[nH]2)CC(c2ccc3c(=O)n(-c4ccc(F)cc4)c(CCCCC(=O)O)nc3c2)=NO1 [Example 196] | ≥ 8.00 |
| CC1(c2nc3cc(Cl)c(F)cc3[nH]2)CC(c2ccc3c(=O)n(-c4ccc(F)cc4)c(CCCCC(=O)O)nc3c2)=NO1 (centres unmarked) [Example 197] | ≥ 8.00 |
| CC1(c2nc3cc(F)cc(F)c3[nH]2)CC(c2ccc3c(=O)n(-c4ccc(F)cc4)c(CCCCC(=O)O)nc3c2)=NO1 (centres unmarked) [Example 198] | ≥ 8.00 |
| CC1(C(=O)N2Cc3ccccc3C2)CC(c2ccc3c(=O)n(-c4ccc(F)cc4)c(CCCCC(=O)O)nc3c2)=NO1 (centres unmarked) [Example 199] | ≥ 8.00 |
| CC1(C(=O)O)CC(c2ccc3c(=O)n(-c4ccc(F)cc4)c(CCCCC(=O)O)nc3c2)=NO1 (centres unmarked) [Example 200] | 7.30 to 8.00 |
| C[C@@]1(c2cc3ccccn3n2)CC(c2ccc3c(=O)n(-c4ccc(F)cc4)c(CCCCC(=O)O)nc3c2)=NO1 [Example 201] | ≥ 8.00 |

Second part, the molecule after the results:

| pKi | Compound |
| --- | --- |
| ≥ 8.00 | CC(c1ccccc1)c1cc(-c2ccc3c(=O)n(-c4ccc(F)cc4)c(CCCCC(=O)O)nc3c2)no1 (centres unmarked) [Example 133] |
| ≥ 8.00 | C[C@@]1([C@H](O)c2cccc(C#N)c2)CC(c2ccc3c(=O)n(-c4ccc(F)cc4)c(CCCCC(=O)O)nc3c2)=NO1 [Example 136] |
| ≥ 8.00 | C[C@@]1([C@@H](O)c2cccc(C#N)c2)CC(c2ccc3c(=O)n(-c4ccc(F)cc4)c(CCCCC(=O)O)nc3c2)=NO1 [Example 137] |
| ≥ 8.00 | O=C(O)CCCCc1nc2cc(C3=NOC4(C3)Cc3ccccc3C4)ccc2c(=O)n1-c1ccc(F)cc1 [Example 145] |
| ≥ 8.00 | CO[C@@H](c1ccccc1)c1cc(-c2ccc3c(=O)n(-c4ccc(F)cc4)c(CCCCC(=O)O)nc3c2)no1 [Example 147] |
| ≥ 8.00 | CO[C@H](c1ccccc1)c1cc(-c2ccc3c(=O)n(-c4ccc(F)cc4)c(C(C)CCCC(=O)O)nc3c2)no1 (some centres unmarked) [Example 148] |
| ≥ 8.00 | CO[C@H](c1ccccc1)c1cc(-c2ccc3c(=O)n(-c4ccc(F)cc4)c(CCCCC(=O)O)nc3c2)no1 [Example 149] |
| ≥ 8.00 | O=C(O)CCCCc1nc2cc(C3=NOC(c4nc5ccc(Cl)cc5o4)C3)ccc2c(=O)n1-c1ccc(F)cc1 (centres unmarked) [Example 150] |
| ≥ 8.00 | O=C(O)CCCCc1nc2cc(C3=NOC(c4nc5ccc(Cl)cc5s4)C3)ccc2c(=O)n1-c1ccc(F)cc1 (centres unmarked) [Example 151] |
| ≥ 8.00 | O=C(O)CCCCc1nc2cc(C3=NO[C@@H](c4nc5ccc(Cl)cc5o4)C3)ccc2c(=O)n1-c1ccc(F)cc1 [Example 153] |
| ≥ 8.00 | O=C(O)CCCCc1nc2cc(C3=NO[C@H](c4nc5ccc(Cl)cc5s4)C3)ccc2c(=O)n1-c1ccc(F)cc1 [Example 154] |
| ≥ 8.00 | O=C(O)CCCCc1nc2cc(C3=NO[C@@H](c4nc5ccc(Cl)cc5s4)C3)ccc2c(=O)n1-c1ccc(F)cc1 [Example 155] |
| ≥ 8.00 | CC1(c2nc3ccc(Cl)cc3o2)CC(c2ccc3c(=O)n(-c4ccc(F)cc4)c(CCCCC(=O)O)nc3c2)=NO1 (centres unmarked) [Example 158] |
| ≥ 8.00 | CC1(c2nc3cc(Cl)ccc3o2)CC(c2ccc3c(=O)n(-c4ccc(F)cc4)c(CCCCC(=O)O)nc3c2)=NO1 (centres unmarked) [Example 159] |
| ≥ 8.00 | CC1(c2nc3ccccc3[nH]2)CC(c2ccc3c(=O)n(-c4ccc(F)cc4)c(CCCCC(=O)O)nc3c2)=NO1 (centres unmarked) [Example 160] |
| ≥ 8.00 | CC1(c2nc3cc(F)ccc3o2)CC(c2ccc3c(=O)n(-c4ccc(F)cc4)c(CCCCC(=O)O)nc3c2)=NO1 (centres unmarked) [Example 161] |
| ≥ 8.00 | CC1(c2nc3ccccn3c2Cl)CC(c2ccc3c(=O)n(-c4ccc(F)cc4)c(CCCCC(=O)O)nc3c2)=NO1 (centres unmarked) [Example 162] |
| ≥ 8.00 | C[C@@]1(c2nc3cc(F)ccc3o2)CC(c2ccc3c(=O)n(-c4ccc(F)cc4)c(CCCCC(=O)O)nc3c2)=NO1 [Example 163] |
| ≥ 8.00 | CC1(C(=O)Nc2cc(F)ccc2O)CC(c2ccc3c(=O)n(-c4ccc(F)cc4)c(CCCCC(=O)O)nc3c2)=NO1 (centres unmarked) [Example 166] |
| ≥ 8.00 | C[C@@]1(c2nc3ccccn3c2Cl)CC(c2ccc3c(=O)n(-c4ccc(F)cc4)c(CCCCC(=O)O)nc3c2)=NO1 [Example 167] |
| ≥ 8.00 | CC1(c2nc3ccc(F)cc3o2)CC(c2ccc3c(=O)n(-c4ccc(F)cc4)c(CCCCC(=O)O)nc3c2)=NO1 (centres unmarked) [Example 169] |

same assay, conditions: Ki, 3.0 nM [3H]PGD2, HEK-hCRTH2 membranes, 60 min, room temperature

| Compound | pKi |
| --- | --- |
| CC1(c2nc3ccccc3s2)CC(c2ccc3c(=O)n(-c4ccc(F)cc4)c(CCCCC(=O)O)nc3c2)=NO1 (centres unmarked) [Example 170] | ≥ 8.00 |
| C[C@@]1(c2nc3ccccc3s2)CC(c2ccc3c(=O)n(-c4ccc(F)cc4)c(CCCCC(=O)O)nc3c2)=NO1 [Example 180] | ≥ 8.00 |
| C[C@]1(c2nc3ccccc3s2)CC(c2ccc3c(=O)n(-c4ccc(F)cc4)c(CCCCC(=O)O)nc3c2)=NO1 [Example 181] | ≥ 8.00 |
